Reference: paper PMC3103136 (2011)

Experiments:
[1] = molecular target: T1, human tear lipocalin (TL) (Homo sapiens, UniProt P31025, C119L); test: fluorescence titration, steady-state deconvoluted with time-resolved lifetimes; assay type: binding
[2] = molecular target: human tear lipocalin (TL) mutant S61/S153 (Homo sapiens, UniProt P31025, C119L/C171S/C79S); test: as above; assay type: binding
[3] = molecular target: T1, human tear lipocalin (TL); test: time-dependent fluorescence binding kinetics
[4] = molecular target: human tear lipocalin (TL) mutant S61/S153 (Homo sapiens, UniProt P31025, C79S/C119L/C171S); test: time-dependent fluorescence binding kinetics
Chain of human tear lipocalin (TL) mutant S61/S153 (Homo sapiens, UniProt P31025, C79S/C119L/C171S) (P31025 19-176 C79S/C119L/C171S): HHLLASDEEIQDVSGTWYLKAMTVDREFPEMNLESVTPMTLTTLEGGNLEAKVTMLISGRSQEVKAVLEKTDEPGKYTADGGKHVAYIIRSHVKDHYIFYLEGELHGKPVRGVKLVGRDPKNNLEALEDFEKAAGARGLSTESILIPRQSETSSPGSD

T1 sequence (P31025 19-176 C119L): as the sequence (P31025 19-176 C79S/C119L/C171S) above, with S61C, S153C counted along it
Chain of human tear lipocalin (TL) mutant S61/S153 (Homo sapiens, UniProt P31025, C119L/C171S/C79S) (P31025 19-176 C79S/C119L/C171S): as the sequence (P31025 19-176 C79S/C119L/C171S) above

| Structure (SMILES) | Kd [1] | Kd [2] | time-dependent fluorescence binding kinetics (time constant) [3] | time-dependent fluorescence binding kinetics (time constant) [4] |
| --- | --- | --- | --- | --- |
| CN(C)c1cccc2c(S(=O)(=O)NCCCCCCCCCCC(=O)O)cccc12 [DAUDA, 11-((5-dimethylaminonaphthalene-1-sulfonyl)amino)undecanoic acid] | 2400 ± 300 nM | 2600 ± 300 nM |  |  |
| CCCCCCCCCCCCCCCC(=O)OC[C@H](COP(=O)([O-])OCC[N+](C)(C)C)OC(=O)CCCCCCCCCCCNc1ccc([N+](=O)[O-])c2nonc12 [NBD C12-HPC, 2-(12-(7-nitrobenz-2-oxa-1,3-diazol-4-yl)amino)dodecanoyl-1-hexadecanoyl-sn-glycero-3-phosphocholine] |  |  | 32.2 ± 0.2 s | 22.2 ± 0.4 s |
| C[C@H](CNc1ccc([N+](=O)[O-])c2nonc12)[C@H]1CC[C@H]2[C@@H]3CC=C4C[C@@H](O)CC[C@]4(C)[C@H]3CC[C@]12C [NBD cholesterol, 22-(N-(7-nitrobenz-2-oxa-1,3-diazol-4-yl)amino)-23,24-bisnor-5-cholen-3\u03B2-ol] |  |  | 11.8 ± 0.2 s | 3.3 ± 0.1 s |
